For experiment [1], the system named is Candida albicans. Put plainly: microbe, parasite or virus in culture. To be noted: ATCC SC5314, 64 h.
Description: Antifungal activity against Candida albicans ATCC SC5314 assessed as inhibition of fungal growth incubated for 64 hrs by liquid medium dilution method
For a further experiment, the system named is Nakaseomyces glabratus. Put plainly: microbe, parasite or virus in culture. To be noted: 64 h.
For a further experiment, the system named is Candida tropicalis. Put plainly: microbe, parasite or virus in culture. The following applies: ATCC 1369, 64 h.
For another experiment, the system named is Cryptococcus neoformans. Kind of experiment: microbe, parasite or virus in culture. To be noted: ZKCC 2209, 64 h.
For the next experiment, the system named is Aspergillus fumigatus. Kind of experiment: microbe, parasite or virus in culture. The following applies: KM8001, 64 h.
In experiment [2] the test system is Candida albicans. Put plainly: microbe, parasite or virus in culture. To be noted: CaR, 64 h.
Description: Antifungal activity against fluconazole-resistant Candida albicans CaR assessed as inhibition of fungal growth incubated for 64 hrs by liquid medium dilution method
For experiment [3], the system named is Candida albicans. Kind of experiment: microbe, parasite or virus in culture. To be noted: 17#, 64 h.
Description: Antifungal activity against fluconazole-resistant Candida albicans 17# assessed as inhibition of fungal growth incubated for 64 hrs by liquid medium dilution method
Experiment [4] concerns Candida albicans. Put plainly: microbe, parasite or virus in culture. The following applies: Candida albicans, 632, 64 h.
Description: Antifungal activity against fluconazole-resistant Candida albicans 632 assessed as inhibition of fungal growth incubated for 64 hrs by liquid medium dilution method
Experiment [5] relates to Candida albicans. Kind of experiment: microbe, parasite or virus in culture. The following applies: Candida albicans, 901, 64 h.
Description: Antifungal activity against fluconazole-resistant Candida albicans 901 assessed as inhibition of fungal growth incubated for 64 hrs by liquid medium dilution method
For experiment [6], the system named is Candida albicans. Kind of experiment: microbe, parasite or virus in culture. The following applies: Candida albicans, 904, 64 h.
Description: Antifungal activity against fluconazole-resistant Candida albicans 904 assessed as inhibition of fungal growth incubated for 64 hrs by liquid medium dilution method
The target of experiment [7] is Lanosterol 14-alpha demethylase (Candida albicans (strain SC5314 / ATCC MYA-2876) (Yeast), UniProt P10613).
Description: Inhibition of candida albicans CYP51 14alpha demethylase activity incubated for 30 mins by HPLC analysis

Values after ≈ are worked out from the molar mass of the structure shown.

Here are results for 18 compounds from ChEMBL document CHEMBL5523722, “Design, Synthesis, and Activity Evaluation of Novel Benzazole Bifunctional Antifungal Inhibitors with an LDH Carrier” (J Med Chem, 2024).

Sequence of Lanosterol 14-alpha demethylase (P10613 whole entry): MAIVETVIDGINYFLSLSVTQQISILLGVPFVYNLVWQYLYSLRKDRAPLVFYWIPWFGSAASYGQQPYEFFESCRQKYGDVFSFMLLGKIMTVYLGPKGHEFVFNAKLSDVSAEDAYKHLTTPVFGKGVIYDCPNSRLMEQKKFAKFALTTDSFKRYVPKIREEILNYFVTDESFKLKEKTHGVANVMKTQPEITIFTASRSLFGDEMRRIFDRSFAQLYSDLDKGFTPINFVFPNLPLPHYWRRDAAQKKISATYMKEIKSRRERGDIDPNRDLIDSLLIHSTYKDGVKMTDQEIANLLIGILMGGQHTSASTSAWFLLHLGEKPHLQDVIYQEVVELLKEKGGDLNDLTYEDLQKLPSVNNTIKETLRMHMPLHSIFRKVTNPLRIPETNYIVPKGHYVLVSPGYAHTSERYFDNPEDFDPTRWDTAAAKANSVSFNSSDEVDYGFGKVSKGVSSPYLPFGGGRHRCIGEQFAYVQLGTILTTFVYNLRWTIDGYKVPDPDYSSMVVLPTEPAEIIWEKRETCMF
Description for Aspergillus fumigatus: Antifungal activity against Aspergillus fumigatus KM8001 assessed as inhibition of fungal growth incubated for 64 hrs by liquid medium dilution method
Description for Candida tropicalis: Antifungal activity against Candida tropicalis ATCC 1369 assessed as inhibition of fungal growth incubated for 64 hrs by liquid medium dilution method
Description for Cryptococcus neoformans: Antifungal activity against Cryptococcus neoformans ZKCC 2209 assessed as inhibition of fungal growth incubated for 64 hrs by liquid medium dilution method
Description for Nakaseomyces glabratus: Antifungal activity against Candida glabrata assessed as inhibition of fungal growth incubated for 64 hrs by liquid medium dilution method

With `Cc1c(CN2CCCC(C(=O)NCC(O)(Cn3cncn3)c3ccc(Cl)cc3Cl)C2)cccc1-c1ccccc1` (centres undefined), the MIC50 against Candida albicans [1] was 0.5 µg/mL (≈ 0.864 µM); with Nakaseomyces glabratus, 0.5 µg/mL (≈ 0.864 µM); against Candida tropicalis, 2 µg/mL (≈ 3.46 µM); against Cryptococcus neoformans, 4 µg/mL (≈ 6.91 µM); with Aspergillus fumigatus, no less than 8 µg/mL.
For the compound `Cc1c(CN2CCC(CNCC(O)(Cn3cncn3)c3ccc(Cl)cc3)CC2)cccc1-c1ccccc1` (centres undefined), the MIC50 in the experiment on Candida albicans [1] is 0.5 µg/mL (≈ 0.943 µM); in the experiment on Nakaseomyces glabratus it was 1 µg/mL (≈ 1.89 µM); against Candida tropicalis, 0.5 µg/mL (≈ 0.943 µM); in the experiment with Cryptococcus neoformans, 4 µg/mL (≈ 7.55 µM); in the experiment with Aspergillus fumigatus, no less than 8 µg/mL.
As for `CC(=O)N1CCN(c2ccc(OCC3COC(Cn4ccnc4)(c4ccc(Cl)cc4Cl)O3)cc2)CC1` (centres undefined) [KETOCONAZOLE], the MIC50 in the experiment with Candida albicans [1] was determined as 0.25 µg/mL (≈ 0.47 µM); in the experiment with Nakaseomyces glabratus, 0.5 µg/mL (≈ 0.941 µM); in the experiment on Candida tropicalis, 0.25 µg/mL (≈ 0.47 µM); in the experiment on Cryptococcus neoformans, 1 µg/mL (≈ 1.88 µM); against Aspergillus fumigatus, 4 µg/mL (≈ 7.53 µM); in the experiment with Candida albicans [2], 4 µg/mL (≈ 7.53 µM). For the same compound, the MIC50 against Candida albicans [3] was 2 µg/mL (≈ 3.76 µM); against Candida albicans [4] it was no less than 8 µg/mL; in the experiment on Candida albicans [5] it was 4 µg/mL (≈ 7.53 µM); in the experiment on Candida albicans [6], no less than 8 µg/mL.
For `Cc1c(CN2CCC(CNCC(O)(Cn3ccnc3)c3ccc(Cl)cc3)CC2)cccc1-c1ccccc1` (centres undefined), the MIC50 in the experiment on Candida albicans [1] is 1 µg/mL (≈ 1.89 µM); with Nakaseomyces glabratus it was 0.5 µg/mL (≈ 0.945 µM); against Candida tropicalis, 1 µg/mL (≈ 1.89 µM); against Cryptococcus neoformans it was 2 µg/mL (≈ 3.78 µM); in the experiment on Aspergillus fumigatus, no less than 8 µg/mL.
Take `Cc1c(CN2CCCC(C(=O)NCC(O)(Cn3ccnc3)c3ccc(Cl)cc3)C2)cccc1-c1ccccc1` (centres undefined): the MIC50 against Candida albicans [1] was 1 µg/mL (≈ 1.84 µM); in the experiment with Nakaseomyces glabratus, 1 µg/mL (≈ 1.84 µM); with Candida tropicalis, 2 µg/mL (≈ 3.68 µM); against Cryptococcus neoformans, 4 µg/mL (≈ 7.36 µM); against Aspergillus fumigatus it was no less than 8 µg/mL.
Regarding `Cc1c(CN2CCC(NCC(O)(Cn3cncn3)c3ccc(Cl)cc3)CC2)cccc1-c1ccccc1` (centres undefined), the IC50 (in general, the concentration that gives 50% inhibition) in experiment [7] came to 113 nM. The MIC50 is 0.25 µg/mL (≈ 0.484 µM) in the experiment with Candida albicans [1]; 0.25 µg/mL (≈ 0.484 µM) in the experiment on Nakaseomyces glabratus; 0.25 µg/mL (≈ 0.484 µM) in the experiment with Candida tropicalis; 0.5 µg/mL (≈ 0.969 µM) with Cryptococcus neoformans; 2 µg/mL (≈ 3.88 µM) in the experiment on Aspergillus fumigatus; 2 µg/mL (≈ 3.88 µM) in the experiment with Candida albicans [2]. For the same compound, the MIC50 stood at 1 µg/mL (≈ 1.94 µM) with Candida albicans [3], 1 µg/mL (≈ 1.94 µM) against Candida albicans [4], 2 µg/mL (≈ 3.88 µM) in the experiment with Candida albicans [5] and 2 µg/mL (≈ 3.88 µM) with Candida albicans [6].
On to `Cc1c(CN2CCCC(C(=O)NCC(Cc3ccccc3)Cn3cncn3)C2)cccc1-c1ccccc1` (centres undefined), for which the MIC50 is 0.25 µg/mL (≈ 0.492 µM) against Candida albicans [1]; 0.5 µg/mL (≈ 0.985 µM) in the experiment with Nakaseomyces glabratus; 0.5 µg/mL (≈ 0.985 µM) in the experiment on Candida tropicalis; no less than 8 µg/mL in the experiment with Cryptococcus neoformans; no less than 8 µg/mL against Aspergillus fumigatus.
As to `Cc1c(CN2CCC(CNCC(O)(Cn3cncn3)c3ccc(Cl)cc3Cl)CC2)cccc1-c1ccccc1` (centres undefined), the MIC50 in the experiment on Candida albicans [1] was 2 µg/mL (≈ 3.54 µM); against Nakaseomyces glabratus, 1 µg/mL (≈ 1.77 µM); against Candida tropicalis, 2 µg/mL (≈ 3.54 µM); in the experiment on Cryptococcus neoformans, 2 µg/mL (≈ 3.54 µM); with Aspergillus fumigatus, no less than 8 µg/mL.
On to `Cc1c(CN2CCCC(C(=O)NCC(O)(Cn3ccnc3)c3ccc(Cl)cc3Cl)C2)cccc1-c1ccccc1` (centres undefined), for which the MIC50 in the experiment on Candida albicans [1] was 0.5 µg/mL (≈ 0.866 µM); against Nakaseomyces glabratus, 1 µg/mL (≈ 1.73 µM); with Candida tropicalis, 0.5 µg/mL (≈ 0.866 µM); in the experiment on Cryptococcus neoformans, no less than 8 µg/mL; against Aspergillus fumigatus, no less than 8 µg/mL.
As for `Cc1c(CN2CCCC(C(=O)NCC(Cc3ccccc3)Cn3ccnc3)C2)cccc1-c1ccccc1` (centres undefined), the MIC50 in the experiment on Candida albicans [1] is 0.5 µg/mL (≈ 0.987 µM); in the experiment on Nakaseomyces glabratus, 2 µg/mL (≈ 3.95 µM); in the experiment with Candida tropicalis it was 1 µg/mL (≈ 1.97 µM); with Cryptococcus neoformans it was 2 µg/mL (≈ 3.95 µM); against Aspergillus fumigatus, 4 µg/mL (≈ 7.89 µM).
In the case of `O=C(NCC(Cc1ccccc1)Cn1cncn1)C1CCCN(Cc2ccc(-c3ccccc3)cc2)C1` (centres undefined), the MIC50 with Candida albicans [1] is 0.5 µg/mL (≈ 1.01 µM); against Nakaseomyces glabratus, 2 µg/mL (≈ 4.05 µM); against Candida tropicalis, 1 µg/mL (≈ 2.03 µM); in the experiment with Cryptococcus neoformans, 2 µg/mL (≈ 4.05 µM); against Aspergillus fumigatus, 4 µg/mL (≈ 8.1 µM).
In [7], `Cc1c(CN2CCCC(C(=O)NCC(O)(Cn3cncn3)c3ccc(Cl)cc3)C2)cccc1-c1ccccc1` (centres undefined) showed an IC50 of 256 nM. For the same compound, the MIC50 against Candida albicans [1] is 0.25 µg/mL (≈ 0.459 µM); with Nakaseomyces glabratus it was 0.5 µg/mL (≈ 0.919 µM); with Candida tropicalis, 0.25 µg/mL (≈ 0.459 µM); with Cryptococcus neoformans, 1 µg/mL (≈ 1.84 µM); against Aspergillus fumigatus it was 4 µg/mL (≈ 7.35 µM); with Candida albicans [2], no less than 8 µg/mL. Also, the MIC50 with Candida albicans [3] is 2 µg/mL (≈ 3.68 µM); in the experiment with Candida albicans [4], 4 µg/mL (≈ 7.35 µM); with Candida albicans [5], no less than 8 µg/mL; with Candida albicans [6], 4 µg/mL (≈ 7.35 µM).
As for `O=C(NCC(Cc1ccccc1)Cn1ccnc1)C1CCCN(Cc2ccc(-c3ccccc3)cc2)C1` (centres undefined), the MIC50 is 1 µg/mL (≈ 2.03 µM) against Candida albicans [1]; 0.5 µg/mL (≈ 1.01 µM) against Nakaseomyces glabratus; 2 µg/mL (≈ 4.06 µM) in the experiment on Candida tropicalis; 4 µg/mL (≈ 8.12 µM) in the experiment with Cryptococcus neoformans; no less than 8 µg/mL against Aspergillus fumigatus.
The matching figures for `Cc1c(CN2CCC(NCC(O)(Cn3ccnc3)c3ccc(Cl)cc3)CC2)cccc1-c1ccccc1` (centres undefined): 0.25 µg/mL (≈ 0.485 µM), 1 µg/mL (≈ 1.94 µM), 0.5 µg/mL (≈ 0.971 µM), 2 µg/mL (≈ 3.88 µM) and 4 µg/mL (≈ 7.77 µM).
As for `OC(Cn1cncn1)(Cn1cncn1)c1ccc(F)cc1F` [FLUCONAZOLE], the IC50 in experiment [7] amounted to 98 nM. In addition, the MIC50 is 0.5 µg/mL (≈ 1.63 µM) with Candida albicans [1]; 0.5 µg/mL (≈ 1.63 µM) in the experiment on Nakaseomyces glabratus; 0.5 µg/mL (≈ 1.63 µM) against Candida tropicalis; 2 µg/mL (≈ 6.53 µM) against Cryptococcus neoformans; no less than 8 µg/mL against Aspergillus fumigatus; no less than 8 µg/mL in the experiment on Candida albicans [2]. For the same compound, the MIC50 with Candida albicans [3], against Candida albicans [4], in the experiment with Candida albicans [5] and against Candida albicans [6] was no less than 8 µg/mL each time.
Take `Cc1c(CN2CCC(CNCC(O)(Cn3ccnc3)c3ccc(Cl)cc3Cl)CC2)cccc1-c1ccccc1` (centres undefined): the MIC50 against Candida albicans [1] is 1 µg/mL (≈ 1.77 µM); against Nakaseomyces glabratus, 0.5 µg/mL (≈ 0.887 µM); against Candida tropicalis it was 2 µg/mL (≈ 3.55 µM); against Cryptococcus neoformans, 4 µg/mL (≈ 7.1 µM); with Aspergillus fumigatus it was 4 µg/mL (≈ 7.1 µM).
Consider `Cc1c(CN2CCC(NCC(O)(Cn3cncn3)c3ccc(Cl)cc3Cl)CC2)cccc1-c1ccccc1` (centres undefined), for which the MIC50 in the experiment on Candida albicans [1] amounted to 0.5 µg/mL (≈ 0.908 µM); with Nakaseomyces glabratus, 1 µg/mL (≈ 1.82 µM); in the experiment with Candida tropicalis, 2 µg/mL (≈ 3.63 µM); against Cryptococcus neoformans it was 2 µg/mL (≈ 3.63 µM); in the experiment on Aspergillus fumigatus, 4 µg/mL (≈ 7.27 µM).
`Cc1c(CN2CCC(NCC(O)(Cn3ccnc3)c3ccc(Cl)cc3Cl)CC2)cccc1-c1ccccc1` (centres undefined) showed an IC50 in [7] of 157 nM. Further, the MIC50 in the experiment on Candida albicans [1] was determined as 0.125 µg/mL (≈ 0.227 µM); in the experiment with Nakaseomyces glabratus, 0.5 µg/mL (≈ 0.91 µM); in the experiment with Candida tropicalis it was 0.5 µg/mL (≈ 0.91 µM); with Cryptococcus neoformans it was 1 µg/mL (≈ 1.82 µM); in the experiment with Aspergillus fumigatus, 4 µg/mL (≈ 7.28 µM); in the experiment on Candida albicans [2] it was 4 µg/mL (≈ 7.28 µM). For the same compound, the MIC50 came to 2 µg/mL (≈ 3.64 µM) in the experiment on Candida albicans [3], 2 µg/mL (≈ 3.64 µM) against Candida albicans [4], 4 µg/mL (≈ 7.28 µM) in the experiment on Candida albicans [5] and 2 µg/mL (≈ 3.64 µM) in the experiment on Candida albicans [6].
